These results are taken from PMC9227536, “Prediction of Pharmacokinetics of IDP-73152 in Humans Using Physiologically-Based Pharmacokinetics” (Pharmaceutics, 2022).

Data set [1] in a line: Blood partitioning (LC-MS/MS-based depletion method), rat. The class given is in vitro ADME. The settings on record: whole blood, rats blood, 0.3, 1, 3 μM, read-out: BP (blood-to-plasma concentration ratio). As to the method: In this study, the partitioning of IDP-73152 in blood samples obtained from mice, rats, dogs, and humans was determined using the LC-MS/MS-based depletion method with slight modifications. DP-73152 was added to an aliquot (1 mL) of blank blood or plasma at a final concentration of 0.3, 1, or 3 μM. The mixture was incubated at 37 °C in a water bath for 60 min. After the incubation, the plasma was separated by centrifugation of the blood samples for 5 min at 10,000× g/4 °C and stored at -80 °C until analysis. The blood-to-plasma concentration ratio (BP) was calculated using the equation:(3) BP=[…], where […] is the concentration of the compound at the corresponding blood concentration in the plasma, and CPL is the concentration from the plasma sample separated from the incubated blood.

Data set [2] can be described thus: PBPK model prediction, rats. The source says: In this study, the PBPK model involving ten tissues (i.e., adipose tissue, brain, heart, kidney, liver, lung, muscle, skin, spleen, and testis (Figure 2; see Appendix A for detailed mathematical descriptions)) was considered to be applicable for the description of IDP-73152 PK in rats, mice, dogs, and humans. Physiological variables were obtained from the literature; they are summarized in Supplementary Table S1.
In addition, from metabolic stability studies, it was evident that IDP-73152 was metabolically unstable in the incubations containing liver microsomes (from all species)/hepatocytes (from rats) and in the rat plasma. […] Accordingly, during model development, we initially assumed that IDP-73152 was entirely eliminated by the metabolism in the liver (namely, CLh) and in the blood (namely, CLblood) in rats: For other species (i.e., mice, dogs, and humans), the elimination was assumed to be primarily mediated by metabolism in the liver. From the results of in vitro metabolic stability studies, the hepatic clearance (CLh) in rats was estimated under the assumption that the well-stirred liver model was adequate for IDP-73152 [29]:(9) CLh=QLI×BP×fu,p×CLu,int,H/QLI×BP+fu,p×CLu,int,H, where QLI, and fu,p represent the liver blood flow and the unbound fraction of IDP-73152 in the plasma, respectively.
For the estimation of the volume of the distribution of IDP-73512 in rats, the steady-state volume of distribution (Vss) was calculated using the following equation [30]:(10) Vss=VP+Vrbc×EP+∑VT,i×KP,ss,i, where Vp, Vrbc, and VT,i are the volumes of plasma, red blood cells, and tissues, respectively. The erythrocyte-to-plasma partition coefficient (EP), is calculated by EP=1+(BP−1)/Hematocrit . The KP,ss for each tissue obtained from Equation (8) was applied for Equation (10). For the case of non-eliminating organs, the KP,ss was regarded as the tissue-to-plasma partition coefficient (KP) in PBPK equations (Appendix A). For the case of the liver—i.e., the eliminating organ—the KP,ss (KP,ss,LI) had to be corrected to account for the equilibrium being altered by the elimination. Thus, a PBPK-operative KP for liver (KP,LI) was calculated using the following equation [31]:(11) KP,LI=KP,ss,LI/(1−ER), where ER is the hepatic extraction ratio of the compound (i.e., CLh/(QLI·BP)). In this study, a compartmental absorption and transit (CAT) model consisting of stomach and five intestinal segments was considered for the description of the intestinal absorption kinetics of IDP-73152 in animals and humans. We assumed that the initial compartment denoted the stomach (Equation (12)), and the subsequent three compartments represented the small intestine and two additional compartments for the large intestine (i.e., a total of six compartments, with absorption occurring in the five intestinal compartments) (Equation (13)). […]
For the intestine, viz. i = 1~5:(13) dMi/dt=Kt,i−1×Mi−1−(Kt,i+ka,i)×Mi, where Ms is the amount of drug in the stomach; Mi is the amount of drug in the i-th intestinal segment; Ks, Kt,i, and ka,i are the rate constants of gastric emptying, intestinal transit, and the segmental absorption rate, respectively. […] The absorption rate constant in the intestinal segments in humans, ka,i,human, was assumed to be identical along the segments and calculated as follows: first, Peff was empirically estimated from the Caco-2 cell permeability (Papp):(14) LogPeff=0.4926×LogPapp−0.1454 […]

The nature of another data set: Stability in plasma, dog. The class given is in vitro ADME. The note with it: dogs plasma. On the procedure:
The unbound fractions of IDP-73152 in various matrices were measured according to the manufacturer's instructions for the rapid equilibrium dialysis (RED) device (ThermoFisher Scientific, Waltham, MA, USA). Briefly, IDP-73152 was added to the plasma or the microsomal/hepatocyte incubation buffer from various species (i.e., mouse, rat, dog, and human for microsomal incubation; rat for hepatocyte incubation) to obtain final concentrations of the compound at 0.3, 1, and 3 μM. After the membrane insert was placed in the RED plate, the solution containing IDP-73152 was added (400 μL) to the sample chamber, and the dialysis buffer (600 μL) was added to the buffer chamber. The RED plate was sealed with parafilm and then incubated at 37 °C in the orbital shaker (Lab Companion, Daejeon, Korea) at 100 rpm for 5 h. […] The IDP-73152 concentration in the buffer/sample chambers (i.e., CBuffer Chamber and CSample Chamber) was determined by an assay. Thus, the fraction unbound was defined as:(2) % Fraction unbound=(CBuffer Chamber/CSample Chamber)×100% When necessary, the stability of IDP-73152 in the matrix was also determined at 5 h. […] Accordingly, the kinetics of IDP-73152 instability were determined in the rat blood at a final concentration of 0.3 μM. […]

Turning to `CC(C)(C)[C@H](NC(=O)[C@H](CC1CCCC1)CN(O)C=O)C(=O)N1CCC(NCc2cc(F)c(F)cc2F)CC1` [IDP-73152], in data set [1], the blood plasma ratio at 60 min worked out at 1.56 ± 0.37. For the same molecule, the “AUC ratio (Predicted AUCinf/Observed AUCinf)” value in data set [2] (intravenous 2.5 mg/kg) was 1.09; in data set [2] (intravenous 10 mg/kg) it was 1.14; in data set [2] (oral 20 mg/kg), 1.03. Besides, the “Cmax ratio without the scaling (SF)” value in data set [2] (oral) is recorded as 2.36. For the same molecule, the “Cmax ratio (Predicted Cmax/Observed Cmax)” value in data set [2] (oral 20 mg/kg) is given as 1.02. For the same molecule, in the data set “Stability in plasma, dog” (5 h, 37 °C), the “percentage remaining in plasma at 5 h” value amounted to 101 ± 6%. For the same molecule, the “stability in plasma” value in “Stability in plasma, dog” (preliminary study) is “stable”.
